*1 amine or outer side, *2 acyl side, *3 side chain or, on linkers, in order; H or OH if unused. Where a SMILES comes first, the peptide text is derived from it. Side-chain parts run from the residue outwards. [ ]: non-standard residue; d: D form. The star is where a group is joined. γGlu = O=C(O)[C@H](CCC(=O)[*:2])N[*:1]; C14 diacid = O=C(O)CCCCCCCCCCCCC(=O)*; Api = NC1(C(=O)O)CCNCC1; AEEA = NCCOCCOCC(=O)O; Aib = CC(C)(N)C(=O)O

For orientation: EC50 means the concentration needed to bring the measured effect to its halfway point. A high value points to lower potency in that assay.

In one experiment the target is T1, human CRF2a receptor (Homo sapiens, UniProt Q13324).
T1 construct: expressed in transfected cells; host or cells: TeloHEAC cells
T1 sequence (Q13324 1-411): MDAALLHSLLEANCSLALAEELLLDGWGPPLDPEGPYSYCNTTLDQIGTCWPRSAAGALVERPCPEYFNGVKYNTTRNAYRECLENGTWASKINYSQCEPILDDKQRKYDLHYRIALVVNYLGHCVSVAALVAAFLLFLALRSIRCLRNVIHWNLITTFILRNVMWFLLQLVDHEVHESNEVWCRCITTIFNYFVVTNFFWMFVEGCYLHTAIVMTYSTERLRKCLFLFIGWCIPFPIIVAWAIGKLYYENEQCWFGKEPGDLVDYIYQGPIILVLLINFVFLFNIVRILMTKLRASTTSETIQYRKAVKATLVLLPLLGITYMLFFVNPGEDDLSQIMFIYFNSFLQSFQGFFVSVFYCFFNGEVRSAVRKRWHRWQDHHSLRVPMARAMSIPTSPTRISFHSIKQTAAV
As to the kind of experiment: Activity at human CRF2a receptor, cAMP functional assay in TeloHEAC cells. The class given is cell-based. To be noted: TeloHEAC cells stably expressing human CRF2a receptor, relative to urocortin 2 (100 nM = 100%). In short, it runs like this:
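cAMP accumulation was measured by HTRF 665/620 nm ratio after 30 min at 37° C compound exposure (16 twofold dilutions) of CRF2a-expressing TeloHEAC cells, 10000/well, in HEPES-buffered HBSS plus IBMX. Activity was normalised to urocortin 2 at 100 nM (100%), and EC50 was the concentration giving half-maximal activation.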

The target of the next experiment is T2, CFR1R receptor (Homo sapiens, UniProt P34998).
T2 construct: host or cells: CHO-K1 (clone 2)
T2 sequence (P34998 24-415): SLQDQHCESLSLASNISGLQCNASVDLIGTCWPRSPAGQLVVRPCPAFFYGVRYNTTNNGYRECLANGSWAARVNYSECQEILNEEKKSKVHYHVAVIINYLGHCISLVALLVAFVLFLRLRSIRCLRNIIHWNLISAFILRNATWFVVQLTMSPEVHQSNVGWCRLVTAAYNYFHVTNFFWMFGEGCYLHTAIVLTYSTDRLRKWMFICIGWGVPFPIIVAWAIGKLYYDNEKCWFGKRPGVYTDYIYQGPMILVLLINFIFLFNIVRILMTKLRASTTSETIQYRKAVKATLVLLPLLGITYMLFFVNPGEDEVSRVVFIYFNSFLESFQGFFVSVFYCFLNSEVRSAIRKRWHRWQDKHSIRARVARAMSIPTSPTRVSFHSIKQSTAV
As to the kind of experiment: Activity at anti-target CFR1R receptor, cAMP assay in CRF1R-overexpression CHO-K1 cells. The class given is cell-based. To be noted: 100% = Sauvagine at 100 nM; for EC50: cAMP. In short, it runs like this: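 Clone 2; cryopreserved stocks (10% DMSO); 4000 cells/well final; 100% activation = Sauvagine 100 nM; otherwise as TeloHAEC protocol.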

The molecule `CC[C@H](C)[C@H](NC(C)=O)C(=O)N[C@H](C(=O)N[C@@H](CC(C)C)C(=O)N[C@@H](CO)C(=O)N[C@@H](CC(C)C)C(=O)N[C@@H](CC(=O)O)C(=O)N[C@@H](C(=O)N1CCC[C@H]1C(=O)N[C@H](C(=O)N[C@@H](CCCCN)C(=O)N[C@@H](CC(C)C)C(=O)N[C@@H](CCCCNC(=O)CC[C@H](NC(=O)CCCCCCCCCCCCC(=O)O)C(=O)O)C(=O)N[C@@H](CCCCN)C(=O)N[C@H](C(=O)N[C@@H](CC(C)C)C(=O)N[C@@H](CC(C)C)C(=O)N[C@@H](CCC(=O)O)C(=O)N[C@@H](CCC(N)=O)C(=O)N[C@@H](CCC(=O)O)C(=O)N[C@@H](CCCCN)C(=O)N[C@@H](CCC(N)=O)C(=O)N[C@@H](CCCCN)C(=O)NC(C)(C)C(=O)N[C@@H](CCC(N)=O)C(=O)N[C@@H](CCCNC(=N)N)C(=O)N[C@@H](CCC(=O)O)C(=O)N[C@@H](CCC(N)=O)C(=O)N[C@@H](C)C(=O)N[C@@H](CCC(=O)O)C(=O)N[C@H](C(=O)N[C@@H](CC(N)=O)C(=O)NC1(C(=O)N[C@@H](CCC(N)=O)C(=O)N[C@H](C(=O)N[C@@H](CC(C)C)C(=O)N[C@@H](C)C(=O)N[C@@H](CCC(N)=O)C(=O)N[C@H](C(N)=O)C(C)C)[C@@H](C)CC)CCNCC1)[C@@H](C)O)[C@@H](C)CC)[C@@H](C)CC)C(C)C)C(C)C` [compound 170] (Ac-IVLSLD[dV]PIKLK([γGlu-C14 diacid])KILLEQEKQK[Aib]QREQAETN[Api]QILAQV-NH2) registered an EC50 on human CRF2a receptor of 1.28 nM. In addition, at CFR1R receptor, the “Emax (% I)” value is 5 % I and the EC50 is > 250 nM.

The molecule `CC[C@H](C)[C@H](NC(C)=O)C(=O)N[C@H](C(=O)N[C@@H](CC(C)C)C(=O)N[C@@H](CO)C(=O)N[C@@H](CC(C)C)C(=O)N[C@@H](CC(=O)O)C(=O)N[C@@H](C(=O)N1CCC[C@H]1C(=O)N[C@H](C(=O)N[C@@H](CCCCN)C(=O)N[C@@H](CC(C)C)C(=O)N[C@@H](CCCCNC(=O)COCCOCCNC(=O)COCCOCCNC(=O)CC[C@H](NC(=O)CCCCCCCCCCCCC(=O)O)C(=O)O)C(=O)N[C@@H](CCCCN)C(=O)N[C@H](C(=O)N[C@@H](CC(C)C)C(=O)N[C@@H](CC(C)C)C(=O)N[C@@H](CCC(=O)O)C(=O)N[C@@H](CCC(N)=O)C(=O)N[C@@H](CCC(=O)O)C(=O)N[C@@H](CCCCN)C(=O)N[C@@H](CCC(N)=O)C(=O)N[C@@H](CCCCN)C(=O)N[C@@H](CCCCN)C(=O)N[C@@H](CCC(N)=O)C(=O)N[C@@H](CCCNC(=N)N)C(=O)N[C@@H](CCC(=O)O)C(=O)N[C@@H](CCC(N)=O)C(=O)N[C@@H](C)C(=O)N[C@@H](CCC(=O)O)C(=O)N[C@H](C(=O)N[C@@H](CC(N)=O)C(=O)NC(C)(C)C(=O)N[C@@H](CCC(N)=O)C(=O)N[C@H](C(=O)N[C@@H](CC(C)C)C(=O)N[C@@H](C)C(=O)N[C@@H](CCC(N)=O)C(=O)N[C@H](C(N)=O)C(C)C)[C@@H](C)CC)[C@@H](C)O)[C@@H](C)CC)[C@@H](C)CC)C(C)C)C(C)C` [compound 171] (Ac-IVLSLD[dV]PIKLK([AEEA-AEEA-γGlu-C14 diacid])KILLEQEKQKKQREQAETN[Aib]QILAQV-NH2) yielded an EC50 on human CRF2a receptor of 5.79 nM. Also, on CFR1R receptor, the “Emax (% I)” value was 0 % I and the EC50 was > 250 nM.

As to `CC[C@H](C)[C@H](NC(C)=O)C(=O)N[C@H](C(=O)N[C@@H](CC(C)C)C(=O)N[C@@H](CO)C(=O)N[C@@H](CC(C)C)C(=O)N[C@@H](CC(=O)O)C(=O)N[C@@H](C(=O)N1CCC[C@H]1C(=O)N[C@H](C(=O)N[C@@H](CCCCN)C(=O)N[C@@H](CC(C)C)C(=O)N[C@@H](CCCCNC(=O)COCCOCCNC(=O)COCCOCCNC(=O)CC[C@H](NC(=O)CCCCCCCCCCCCC(=O)O)C(=O)O)C(=O)N[C@@H](CCCCN)C(=O)N[C@H](C(=O)N[C@@H](CC(C)C)C(=O)N[C@@H](CC(C)C)C(=O)N[C@@H](CCC(=O)O)C(=O)N[C@@H](CCC(N)=O)C(=O)N[C@@H](CCC(=O)O)C(=O)N[C@@H](CCCCN)C(=O)N[C@@H](CCC(N)=O)C(=O)N[C@@H](CCCCN)C(=O)N[C@@H](CCCCN)C(=O)N[C@@H](CCC(N)=O)C(=O)N[C@@H](CCCNC(=N)N)C(=O)N[C@@H](CCC(=O)O)C(=O)N[C@@H](CCC(N)=O)C(=O)N[C@@H](C)C(=O)N[C@@H](CCC(=O)O)C(=O)N[C@H](C(=O)N[C@@H](CC(N)=O)C(=O)NC1(C(=O)N[C@@H](CCC(N)=O)C(=O)N[C@H](C(=O)N[C@@H](CC(C)C)C(=O)N[C@@H](C)C(=O)N[C@@H](CCC(N)=O)C(=O)N[C@H](C(N)=O)C(C)C)[C@@H](C)CC)CCNCC1)[C@@H](C)O)[C@@H](C)CC)[C@@H](C)CC)C(C)C)C(C)C` [compound 172] (Ac-IVLSLD[dV]PIKLK([AEEA-AEEA-γGlu-C14 diacid])KILLEQEKQKKQREQAETN[Api]QILAQV-NH2), the EC50 on human CRF2a receptor is 16.1 nM; on CFR1R receptor, > 250 nM. At CFR1R receptor, the “Emax (% I)” value is listed as −6 % I.

Molecule `CC[C@H](C)[C@H](NC(C)=O)C(=O)N[C@H](C(=O)N[C@@H](CC(C)C)C(=O)N[C@@H](CO)C(=O)N[C@@H](CC(C)C)C(=O)N[C@@H](CC(=O)O)C(=O)N[C@@H](C(=O)N1CCC[C@H]1C(=O)N[C@H](C(=O)N[C@@H](CCCCN)C(=O)N[C@@H](CC(C)C)C(=O)N[C@@H](CCCCNC(=O)COCCOCCNC(=O)COCCOCCNC(=O)CC[C@H](NC(=O)CCCCCCCCCCCCC(=O)O)C(=O)O)C(=O)N[C@@H](CCCCN)C(=O)N[C@H](C(=O)N[C@@H](CC(C)C)C(=O)N[C@@H](CC(C)C)C(=O)N[C@@H](CCC(=O)O)C(=O)N[C@@H](CCC(N)=O)C(=O)N[C@@H](CCC(=O)O)C(=O)N[C@@H](CCCCN)C(=O)N[C@@H](CCC(N)=O)C(=O)N[C@@H](CCCCN)C(=O)NC(C)(C)C(=O)N[C@@H](CCC(N)=O)C(=O)N[C@@H](CCCNC(=N)N)C(=O)N[C@@H](CCC(=O)O)C(=O)N[C@@H](CCC(N)=O)C(=O)N[C@@H](C)C(=O)N[C@@H](CCC(=O)O)C(=O)N[C@H](C(=O)N[C@@H](CC(N)=O)C(=O)NC1(C(=O)N[C@@H](CCC(N)=O)C(=O)N[C@H](C(=O)N[C@@H](CC(C)C)C(=O)N[C@@H](C)C(=O)N[C@@H](CCC(N)=O)C(=O)N[C@H](C(N)=O)C(C)C)[C@@H](C)CC)CCNCC1)[C@@H](C)O)[C@@H](C)CC)[C@@H](C)CC)C(C)C)C(C)C` [compound 173] (Ac-IVLSLD[dV]PIKLK([AEEA-AEEA-γGlu-C14 diacid])KILLEQEKQK[Aib]QREQAETN[Api]QILAQV-NH2) had a concentration giving a half-maximal response (EC50) on human CRF2a receptor of 28.1 nM. For the same molecule, on CFR1R receptor, the “Emax (% I)” value was −1 % I and the EC50 was > 250 nM.

Take `CC[C@H](C)[C@H](NC(C)=O)C(=O)N[C@H](C(=O)N[C@@H](CC(C)C)C(=O)N[C@@H](CO)C(=O)N[C@@H](CC(C)C)C(=O)N[C@@H](CC(=O)O)C(=O)N[C@@H](C(=O)N1CCC[C@H]1C(=O)N[C@H](C(=O)N[C@@H](CCCCN)C(=O)N[C@@H](CC(C)C)C(=O)N[C@@H](CCCCNC(=O)COCCOCCNC(=O)COCCOCCNC(=O)CC[C@H](NC(=O)CC[C@H](NC(=O)CCCCCCCCCCCCC(=O)O)C(=O)O)C(=O)O)C(=O)N[C@@H](CCCCN)C(=O)N[C@H](C(=O)N[C@@H](CC(C)C)C(=O)N[C@@H](CC(C)C)C(=O)N[C@@H](CCC(=O)O)C(=O)N[C@@H](CCC(N)=O)C(=O)N[C@@H](CCC(=O)O)C(=O)N[C@@H](CCCCN)C(=O)N[C@@H](CCC(N)=O)C(=O)N[C@@H](CCCCN)C(=O)N[C@@H](CCCCN)C(=O)N[C@@H](CCC(N)=O)C(=O)N[C@@H](CCCNC(=N)N)C(=O)N[C@@H](CCC(=O)O)C(=O)N[C@@H](CCC(N)=O)C(=O)N[C@@H](C)C(=O)N[C@@H](CCC(=O)O)C(=O)N[C@H](C(=O)N[C@@H](CC(N)=O)C(=O)NC1(C(=O)N[C@@H](CCC(N)=O)C(=O)N[C@H](C(=O)N[C@@H](CC(C)C)C(=O)N[C@@H](C)C(=O)N[C@@H](CCC(N)=O)C(=O)N[C@H](C(N)=O)C(C)C)[C@@H](C)CC)CCNCC1)[C@@H](C)O)[C@@H](C)CC)[C@@H](C)CC)C(C)C)C(C)C` [compound 175] (Ac-IVLSLD[dV]PIKLK([AEEA-AEEA-γGlu-γGlu-C14 diacid])KILLEQEKQKKQREQAETN[Api]QILAQV-NH2): the 50% effective concentration (EC50) on human CRF2a receptor worked out at 18.9 nM. Besides, on CFR1R receptor, the “Emax (% I)” value stood at 5 % I and the EC50 is > 250 nM.

These data come from US20260001928A1 (CORTERIA PHARMACEUTICALS, priority 2022, published 2026).
